In brackets after ≈: the same amount, converted by molar mass.

In the assay the test system is HepG2. Nature of the assay: Cytotoxicity against human HepG2 cells by MTT assay. Format: functional, cell-based.
One may read the IC50 as the point on the concentration scale where inhibition reaches its midpoint. Read a low IC50 as greater potency. Compound `COc1ccc([C@@H]2C[C@@H]3O[C@H]4[C@H](Oc5c(C)c(O)c(C)c(c53)O2)O[C@H](CO)[C@@H](O)[C@@H]4OC(C)=O)cc1` showed an IC50 of 4.1 µg/mL (≈ 8.16 µM).

`COc1ccc([C@@H]2C[C@@H]3O[C@H]4[C@H](Oc5c(C)c(O)c(C)c(c53)O2)O[C@H](COC(C)=O)[C@@H](O)[C@@H]4O)cc1` gave an IC50 of 3.5 µg/mL (≈ 6.96 µM).

`COc1ccc([C@@H]2C[C@@H](O)c3c(c(C)c4c(c3O[C@@H]3O[C@H](CO)[C@@H](O)[C@H](O)[C@H]3O)CO[C@H]3[C@H](O4)O[C@H](CO)[C@@H](O)[C@@H]3O)O2)cc1` registered an IC50 of 3.1 µg/mL (≈ 4.85 µM).

For `COc1ccc([C@@H]2C[C@@H]3O[C@H]4[C@H](Oc5c(C)c(O)c(C)c(c53)O2)O[C@H](CO)[C@@H](O)[C@@H]4O)cc1` [ABACOPTERIN C], half-maximal inhibition (IC50) required 4 µg/mL (≈ 8.69 µM).

The compound `O=c1[nH]cc(F)c(=O)[nH]1` [FLUOROURACIL] yielded an IC50 of 1.3 µg/mL (≈ 9.99 µM).

`COc1ccc([C@@H]2C[C@@H](O)c3c(c(C)c(O[C@@H]4O[C@H](CO)[C@@H](O)[C@H](O)[C@H]4O)c(CO)c3O[C@@H]3O[C@H](CO)[C@@H](O)[C@H](O)[C@H]3O)O2)cc1` [TRIPHYLLIN A] displayed an IC50 of 5.7 µg/mL (≈ 8.68 µM).

The values are drawn from ChEMBL document CHEMBL1157255, “Flavan-4-ol Glycosides from the Rhizomes of Abacopteris penangiana” (J Nat Prod, 2006).
